Measured values from ChEMBL document CHEMBL1130220, “Synthesis of willardiine and 6-azawillardiine analogs: pharmacological characterization on cloned homomeric human AMPA and kainate receptor subtypes” (J Med Chem, 1997).

How the values were obtained:
[1] = target: Glutamate receptor 2 (Homo sapiens, UniProt P42262); experiment: biochemical
[2] = target: Glutamate receptor 4 (Homo sapiens, UniProt P48058); experiment: biochemical
[3] = target: Glutamate receptor 1 (Homo sapiens, UniProt P42261); experiment: biochemical
Sequence of Glutamate receptor 1 (Homo sapiens, UniProt P42261) (P42261 whole entry): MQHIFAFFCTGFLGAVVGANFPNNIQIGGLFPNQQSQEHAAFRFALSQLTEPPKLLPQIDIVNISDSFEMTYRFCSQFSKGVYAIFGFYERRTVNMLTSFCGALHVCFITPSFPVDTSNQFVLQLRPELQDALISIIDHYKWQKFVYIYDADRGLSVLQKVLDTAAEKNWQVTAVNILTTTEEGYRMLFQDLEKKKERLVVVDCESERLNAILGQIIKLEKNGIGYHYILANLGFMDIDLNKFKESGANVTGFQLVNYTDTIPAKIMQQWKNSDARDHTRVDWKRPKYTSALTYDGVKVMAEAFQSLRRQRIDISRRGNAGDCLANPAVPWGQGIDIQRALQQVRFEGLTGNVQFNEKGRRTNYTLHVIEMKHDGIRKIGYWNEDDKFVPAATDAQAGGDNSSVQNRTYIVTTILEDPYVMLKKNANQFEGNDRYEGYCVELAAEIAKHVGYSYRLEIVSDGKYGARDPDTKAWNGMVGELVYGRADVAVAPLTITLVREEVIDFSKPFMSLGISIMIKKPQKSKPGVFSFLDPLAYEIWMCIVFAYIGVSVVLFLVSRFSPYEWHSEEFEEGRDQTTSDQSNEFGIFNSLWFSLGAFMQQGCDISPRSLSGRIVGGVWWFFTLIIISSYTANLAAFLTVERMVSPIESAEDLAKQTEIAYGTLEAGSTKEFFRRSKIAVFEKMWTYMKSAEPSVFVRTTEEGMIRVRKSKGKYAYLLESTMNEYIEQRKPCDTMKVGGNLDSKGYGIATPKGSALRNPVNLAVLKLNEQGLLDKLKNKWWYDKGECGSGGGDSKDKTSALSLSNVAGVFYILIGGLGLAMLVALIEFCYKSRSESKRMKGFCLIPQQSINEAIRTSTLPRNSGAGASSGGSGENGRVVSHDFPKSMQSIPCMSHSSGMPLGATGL

[4] = target: Glutamate receptor 1 (Rattus norvegicus, UniProt P19490); experiment: Potency on Ionotropic glutamate receptor AMPA in hippocampal neurons; assay type: functional, tissue-based, Hippocampus
Sequence of Glutamate receptor 1 (Rattus norvegicus, UniProt P19490) (P19490 whole entry): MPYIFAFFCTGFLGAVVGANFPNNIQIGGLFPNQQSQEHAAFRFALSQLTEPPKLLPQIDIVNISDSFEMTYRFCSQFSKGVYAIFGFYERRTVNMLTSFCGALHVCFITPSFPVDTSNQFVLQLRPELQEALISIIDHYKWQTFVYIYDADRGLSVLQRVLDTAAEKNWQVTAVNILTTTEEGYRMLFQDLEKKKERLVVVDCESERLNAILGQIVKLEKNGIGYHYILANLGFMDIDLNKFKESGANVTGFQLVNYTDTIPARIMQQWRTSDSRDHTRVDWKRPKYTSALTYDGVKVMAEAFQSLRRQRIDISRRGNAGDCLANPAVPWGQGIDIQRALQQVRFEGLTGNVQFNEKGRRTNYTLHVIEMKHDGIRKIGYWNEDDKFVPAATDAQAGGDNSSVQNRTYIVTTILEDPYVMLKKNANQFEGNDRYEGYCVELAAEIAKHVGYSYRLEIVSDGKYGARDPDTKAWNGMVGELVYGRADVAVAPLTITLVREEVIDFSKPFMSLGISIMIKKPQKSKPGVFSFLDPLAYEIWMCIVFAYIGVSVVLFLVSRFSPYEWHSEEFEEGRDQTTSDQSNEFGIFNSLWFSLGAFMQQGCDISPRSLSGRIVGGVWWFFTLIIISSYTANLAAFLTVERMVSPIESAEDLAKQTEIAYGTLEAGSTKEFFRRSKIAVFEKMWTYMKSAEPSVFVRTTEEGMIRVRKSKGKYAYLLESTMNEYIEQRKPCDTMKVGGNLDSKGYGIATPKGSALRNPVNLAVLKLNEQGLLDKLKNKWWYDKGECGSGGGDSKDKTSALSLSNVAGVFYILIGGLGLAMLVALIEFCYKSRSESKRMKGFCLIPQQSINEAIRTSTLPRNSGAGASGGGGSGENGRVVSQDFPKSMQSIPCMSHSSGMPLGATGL

[5] = target: Glutamate receptor ionotropic, kainate 3 (Rattus norvegicus, UniProt P42264); experiment: Potency on Ionotropic glutamate receptor kainate in dorsal root ganglion cells; assay type: functional, cell-based
Sequence of Glutamate receptor ionotropic, kainate 3 (P42264 whole entry): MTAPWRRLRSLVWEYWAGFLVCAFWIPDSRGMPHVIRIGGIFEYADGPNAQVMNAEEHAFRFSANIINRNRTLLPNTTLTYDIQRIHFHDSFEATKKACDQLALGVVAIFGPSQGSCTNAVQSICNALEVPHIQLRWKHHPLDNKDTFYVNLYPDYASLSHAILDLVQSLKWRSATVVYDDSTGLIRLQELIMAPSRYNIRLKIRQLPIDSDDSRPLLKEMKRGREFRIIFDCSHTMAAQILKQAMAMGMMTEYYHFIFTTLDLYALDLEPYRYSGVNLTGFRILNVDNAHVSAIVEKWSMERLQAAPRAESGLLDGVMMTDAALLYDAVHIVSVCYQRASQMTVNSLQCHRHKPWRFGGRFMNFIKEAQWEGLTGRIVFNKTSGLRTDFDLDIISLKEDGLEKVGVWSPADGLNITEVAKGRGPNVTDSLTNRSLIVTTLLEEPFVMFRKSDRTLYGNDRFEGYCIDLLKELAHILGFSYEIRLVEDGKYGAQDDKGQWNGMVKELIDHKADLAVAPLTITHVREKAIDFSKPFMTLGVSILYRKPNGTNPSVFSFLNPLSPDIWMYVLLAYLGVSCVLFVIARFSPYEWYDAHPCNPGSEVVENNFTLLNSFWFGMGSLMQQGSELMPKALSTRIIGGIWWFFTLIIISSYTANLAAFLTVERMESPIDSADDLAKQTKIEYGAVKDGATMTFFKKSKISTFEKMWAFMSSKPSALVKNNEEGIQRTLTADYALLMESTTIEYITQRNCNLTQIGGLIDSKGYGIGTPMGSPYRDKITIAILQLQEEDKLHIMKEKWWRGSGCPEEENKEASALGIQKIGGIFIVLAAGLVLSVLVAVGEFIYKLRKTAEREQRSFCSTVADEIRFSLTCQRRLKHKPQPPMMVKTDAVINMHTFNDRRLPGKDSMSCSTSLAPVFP

Sequence of Glutamate receptor 4 (P48058 whole entry): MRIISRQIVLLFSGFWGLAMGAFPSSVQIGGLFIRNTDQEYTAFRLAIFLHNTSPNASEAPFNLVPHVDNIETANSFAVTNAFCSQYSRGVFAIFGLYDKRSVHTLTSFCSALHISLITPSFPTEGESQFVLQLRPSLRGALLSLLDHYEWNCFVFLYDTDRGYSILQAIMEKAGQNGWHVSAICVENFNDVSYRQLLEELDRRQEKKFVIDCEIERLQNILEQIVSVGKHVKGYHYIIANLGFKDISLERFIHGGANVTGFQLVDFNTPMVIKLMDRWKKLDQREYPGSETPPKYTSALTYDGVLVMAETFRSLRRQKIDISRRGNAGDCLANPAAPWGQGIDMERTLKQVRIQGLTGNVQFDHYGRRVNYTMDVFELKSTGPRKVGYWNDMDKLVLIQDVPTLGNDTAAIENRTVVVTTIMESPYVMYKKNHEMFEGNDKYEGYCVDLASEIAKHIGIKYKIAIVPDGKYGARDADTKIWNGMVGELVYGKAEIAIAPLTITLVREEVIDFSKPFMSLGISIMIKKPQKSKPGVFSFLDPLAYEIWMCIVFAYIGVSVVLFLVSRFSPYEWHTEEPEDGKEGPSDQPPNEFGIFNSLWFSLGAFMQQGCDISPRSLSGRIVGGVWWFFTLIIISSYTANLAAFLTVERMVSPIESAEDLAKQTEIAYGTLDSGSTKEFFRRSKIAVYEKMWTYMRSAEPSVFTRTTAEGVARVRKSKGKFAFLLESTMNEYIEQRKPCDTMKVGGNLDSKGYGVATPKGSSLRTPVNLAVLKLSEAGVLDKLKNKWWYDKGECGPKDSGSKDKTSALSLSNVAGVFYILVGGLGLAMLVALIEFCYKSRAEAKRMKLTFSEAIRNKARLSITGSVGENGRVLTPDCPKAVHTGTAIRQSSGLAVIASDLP
Sequence of Glutamate receptor 2 (P42262 whole entry): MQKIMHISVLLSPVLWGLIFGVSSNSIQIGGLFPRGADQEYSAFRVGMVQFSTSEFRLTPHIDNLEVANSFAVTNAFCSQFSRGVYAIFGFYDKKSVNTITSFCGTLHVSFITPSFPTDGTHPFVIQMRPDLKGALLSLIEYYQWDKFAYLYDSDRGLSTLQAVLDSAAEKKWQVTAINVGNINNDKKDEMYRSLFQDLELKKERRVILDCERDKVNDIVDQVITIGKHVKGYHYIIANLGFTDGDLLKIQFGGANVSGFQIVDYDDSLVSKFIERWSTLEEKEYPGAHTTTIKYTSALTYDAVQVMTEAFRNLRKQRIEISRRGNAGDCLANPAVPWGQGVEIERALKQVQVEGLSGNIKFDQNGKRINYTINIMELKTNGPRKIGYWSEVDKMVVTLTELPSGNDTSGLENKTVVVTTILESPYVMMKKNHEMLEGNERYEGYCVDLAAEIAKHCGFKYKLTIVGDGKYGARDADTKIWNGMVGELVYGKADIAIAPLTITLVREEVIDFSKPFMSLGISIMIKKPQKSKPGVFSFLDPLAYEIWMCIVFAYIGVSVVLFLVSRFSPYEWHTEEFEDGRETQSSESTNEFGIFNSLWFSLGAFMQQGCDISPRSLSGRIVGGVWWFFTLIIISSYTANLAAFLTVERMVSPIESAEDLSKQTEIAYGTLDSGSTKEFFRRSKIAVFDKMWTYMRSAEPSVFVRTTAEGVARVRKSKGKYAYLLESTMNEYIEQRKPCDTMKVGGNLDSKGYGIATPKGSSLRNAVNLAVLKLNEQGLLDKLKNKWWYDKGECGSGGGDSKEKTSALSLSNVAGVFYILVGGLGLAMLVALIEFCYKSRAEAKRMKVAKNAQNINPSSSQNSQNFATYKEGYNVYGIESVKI

| Ki [1] [nM] | Structure (SMILES) | Ki [2] [nM] | Ki [3] [nM] | EC50 [4] [µM] | EC50 [5] [nM] |
| --- | --- | --- | --- | --- | --- |
| 372 | Cc1nn(C[C@H](N)C(=O)O)c(=O)[nH]c1=O | 89 | 240 |  |  |
|  | N[C@@H](Cn1cc([N+](=O)[O-])c(=O)[nH]c1=O)C(=O)O | 207 | 279 |  |  |
|  | N[C@@H](Cn1cc(Cl)c(=O)[nH]c1=O)C(=O)O | 451 | 65 |  |  |
| 101 | N[C@@H](Cn1nc(I)c(=O)[nH]c1=O)C(=O)O | 19.9 | 73.9 |  |  |
|  | N[C@@H](Cn1cc(I)c(=O)[nH]c1=O)C(=O)O | 972 | 163 | 19.2 | 140 |
| 461 | N[C@@H](Cn1ncc(=O)[nH]c1=O)C(=O)O | 189 | 163 |  |  |
|  | N[C@@H](Cn1cc(F)c(=O)[nH]c1=O)C(=O)O | 305 | 14.7 |  |  |
| 19.3 | N[C@@H](Cn1nc(Br)c(=O)[nH]c1=O)C(=O)O | 7.9 | 29 |  |  |
|  | N[C@@H](Cn1cc(Br)c(=O)[nH]c1=O)C(=O)O | 457 | 92 |  |  |
|  | N[C@@H](Cn1ccc(=O)[nH]c1=O)C(=O)O [(S)-WILLARDIINE] | 8850 | 386 |  |  |

| Structure (SMILES) | Ki [1] [nM] | Ki [2] [nM] | Ki [3] [nM] | EC50 [4] [µM] | EC50 [5] [nM] |
| --- | --- | --- | --- | --- | --- |
| N[C@@H](Cn1nc(Cl)c(=O)[nH]c1=O)C(=O)O | 16.7 | 3.6 | 7.1 |  |  |
